The text below walks through data of paper PMC3178264 (Nature chemical biology, 2009).

For data set [1] the following is noted: cited from earlier work.
For data set [2] the following is noted: cited from earlier work. The source holds these as a separate data set.
Data set [3] concerns the target human UNG (Homo sapiens, UniProt P13051). It is filed as biochemical.

Chain of human UNG (P13051 whole entry): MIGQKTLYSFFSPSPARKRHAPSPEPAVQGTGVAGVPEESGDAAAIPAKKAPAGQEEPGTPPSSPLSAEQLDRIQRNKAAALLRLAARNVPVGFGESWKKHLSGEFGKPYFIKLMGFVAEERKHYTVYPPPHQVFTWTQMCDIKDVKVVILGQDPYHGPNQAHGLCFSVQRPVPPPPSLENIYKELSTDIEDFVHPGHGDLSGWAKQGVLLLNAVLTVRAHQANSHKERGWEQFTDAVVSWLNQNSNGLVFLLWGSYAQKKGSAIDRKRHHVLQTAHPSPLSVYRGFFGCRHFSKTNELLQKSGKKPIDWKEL

`C=CC[C@@H]1/C=C(\C)C[C@H](C)C[C@H](OC)[C@H]2O[C@@](O)(C(=O)C(=O)N3CCCC[C@H]3C(=O)O[C@H](/C(C)=C/[C@@H]3CC[C@@H](O)[C@H](OC)C3)[C@H](C)[C@@H](O)CC1=O)[C@H](C)C[C@@H]2OC` [FK506]: the “binds less tightly than expected from summing the binding free energies of its component fragments” value in data set [1] was “about 3 kcal/mol”.

Broadly, the pKa is the pH at which an ionisable group is half protonated. As for `CNCc1ccccc1` [N-methyl-benzyl amine], the pKa in data set [2] is recorded as 9.8.

Consider `O=C(O)c1cccc(/C=N/OCCCNCc2cc(=O)[nH]c(=O)[nH]2)c1` [compound 6], for which the “free energy change more negative than DO” value in data set [3] (MA1 compared with DO) was -2.0 kcal/mol.

On to `O=C(O)c1cccc(CNCCCO/N=C/c2cc(=O)[nH]c(=O)[nH]2)c1` [compound 22], for which the “ΔΔG of binding on switching amine to oxime linkages” value in data set [3] (difference free energies relative to DA (27), Figure 4) was -0.6 kcal/mol.
